Measurements taken from article PMC11251039, “Harnessing cholesterol uptake of malaria parasites for therapeutic applications” (EMBO Molecular Medicine, 2024).
“And” between values parts separate entries of the source, which are not always exact repeats. Equal entries are not always repeated.

Assays:
[1] = test system: P. falciparum stage III–IV gametocytes; test: P. falciparum gametocyte viability assay (MitoTracker, flow cytometry), stage III-IV; type: cell-based, Plasmodium falciparum; settings: 48 h; for Gametocyte stage III-IV viability, percentage of control: replicate values, source data Fig. 2C, listed as BC5B
Protocol: Gametocyte assays commenced seven days (stage III–IV) or ten days (stage V) post-invasion. […]
Plasmodium falciparum Gametocyte Viability Assays:
Asexual P. falciparum parasites were induced to form gametocytes as described (21).
Synchronized trophozoite-stage parasites at 2% parasitaemia were incubated overnight and […]
haematocrit maintained at 4%. On the subsequent day (designated as day 0) of gametocytogenesis, the culture containing early ring-stage parasites was first purified by sorbitol synchronisation to remove asynchronous trophozoites, and passed through a magnetic field in a sterile MACS® column in a SuperMACSTM II magnet to remove remaining late-stage parasites or later-stage gametocytes (negative selection). The culture medium was supplemented with 50 mM N-acetyl-D-glucosamine to inhibit asexual parasite proliferation, and changed daily. Sorbitol treatment was performed on Day 1, 5, and 6 to further remove asexual parasites. Gametocytes were magnetically enriched (positive selection) in a sterile column with a SuperMACSTM II magnet and eluted in culture media with 50 mM N-acetyl-D-glucosamine. These gametocytes were incubated overnight at 37 °C under microaerophilic conditions, and purity was assessed by examination under a light microscope (400× […]
Gametocyte viability was assessed as described by Ridgway et al. (21) with modifications.
Compounds or solvent controls (DMSO) were serially diluted across 96-well plates in culture media supplemented with 50 mM N-acetyl-D-glucosamine. Culture media without compound was used as a negative control. […]
control to determine background gametocyte fluorescence. Stage III-IV gametocytes (Day 7) or stage V (day 10) gametocytes were concentrated and added to the plate with 200 µL per well. The plate was incubated for 48 hours at 37 °C under humid microaerophilic conditions.
Parasites were then stained with 500 nM MitoTrackerTM Deep Red FM and 5 μg/ml Hoechst […]
cytometer as described above. […]
excluded. Live (positive) and dead (negative) gametocytes were differentiated by […]
percentage of each was calculated. […]

[2] = test system: Toxoplasma gondii tachyzoites (RH strain); test: Toxoplasma growth inhibition assay (tdTomato fluorescence, in HFF cells); type: cell-based; settings: 72 h
Protocol: Fluorescence was measured daily with a fluorescence microplate reader for one week, and the background fluorescence from the time 0 reading was subtracted from all other measurements. […]
Toxoplasma Growth Inhibition Assays:
Growth inhibition was investigated as described previously (26). Fluorescent Toxoplasma gondii parasites were inoculated into an optical bottom 96-well plate containing confluent human foreskin fibroblast (HFF) host cells at a density of 2,000 parasites/well, with a serial dilution of each compound, or culture media/DMSO (0.1% v/v) alone. Plates were measured daily with a FluoStar Optima fluorescence plate reader at 540 nm excitation and 590 nm emission for one week, and the background fluorescence from the time 0 reading was subtracted from all other measurements. […]

[3] = test system: human hepatoma cells (Huh7); test: Human hepatoma viability assay (CellTiter-Blue); type: cell-based; settings: for Huh7 viability, dose-response data points (Figure 3F): replicate data points, listed as BC5B
Protocol: Huh7 hepatoma viability assays were conducted in the same manner as the P. berghei assays, with metabolic capacity (indicating viability) measured with a fluorescence microplate reader after incubation with CellTiter-Blue® (Promega) for 3 h.
Appendix Fraser/Curtis et al. […]
Human Hepatoma Viability Assays:
The Huh7 hepatoma cell line (ATCC) was maintained under routine culture conditions in Dulbecco's Modified Eagle Medium (DMEM) containing 3.7 g/L NaHCO3 supplemented with 10% foetal bovine serum (FBS), 100 units/mL penicillin, and 100 μg/mL streptomycin at 37 °C in a humidified 5% CO2 incubator.
Viability assays were performed in parallel to the P. berghei growth inhibition. 10,000 Huh7 cells were seeded in 96-well and dark-sided microplates (Greiner Bio One) and cultured at 37°C, 5% CO2 and 80% humidity. The next day, the media was replaced with compounds or solvent controls (DMSO) serially diluted in culture media. Media was partially replaced with new drug dilutions over the following two days. After 48 hours, CellTiter-Blue® (Promega) was added according to the manufacturer’s instructions and incubated for 3 hours. Fluorescence intensity was measured with 530/25 ex and 590/20 em in a Synergy HTX plate reader (Agilent).

[4] = test system: human foreskin fibroblasts (HFF); test: Human foreskin fibroblast growth inhibition assay (SYBR Safe); type: cell-based; settings: 72 h
Protocol: HFF cell growth inhibition assays commenced by adding 5000 cells to each well of a 96-well plate. 10 µg/mL cycloheximide was used as a no-growth control. DNA replication (indicating growth) was measured at the specified time using SYBR Safe DNA Gel Stain (Invitrogen 33102) and a fluorescence microplate reader. […]
Human Foreskin Fibroblast Growth Inhibition Assays:
The HFF cell line was maintained under routine culture conditions in DMEM containing 3.7 g/L NaHCO3 supplemented with 10% v/v newborn calf serum (NCS), 50 units/mL penicillin, 50 μg/mL streptomycin, 10 μg/mL gentamicin, 0.25 μg/mL amphotericin B, and 0.2 mM L-glutamine at 37 °C in a humidified 5% CO2 incubator. […]
HFF cells were detached from a flask using 0.25% Trypsin with 0.2 g/L EDTA (Sigma T4049) and washed with culture media. Cells were incubated with a serial dilution of each compound, or media/DMSO alone. Cycloheximide at 10 µg/mL was used as a positive control to determine background fluorescence. Approximately 5 000 cells were seeded in each well. Plates were incubated at 37 °C for 72 hours (until reaching confluency) and the media was removed. Plates were transferred to a -18 °C freezer. Plates were thawed and SYBR Safe DNA Gel Stain (final concentration 1/10,000) diluted in lysis buffer (as above) was added. Fluorescence was read at 490 nm excitation/ 520 nm emission on a FLUOstar Optima fluorescence plate reader. […]

In the case of `COc1cc(NC(C)CCCNC(=O)CCC(=O)O[C@H]2CC[C@H]3[C@@H]4CC=C5C[C@@H](O)CC[C@]5(C)[C@H]4CC[C@]23C)c2ncccc2c1` (stereo partly drawn) [C-17-PQ], the “Gametocyte stage III-IV viability, percentage of control” value ([1]; 0.390625000 uM, 0.390625 µM) is reported as 106.6% and 106.4% and 106.3% and 105.9% and 97.84% and 98.56% and 99.18% and 96.09% and 94.81% and 99.34% and 96.51%, the “Gametocyte stage III-IV viability, percentage of control” value ([1]; 0.781250000 uM, 0.78125 µM) is reported as 105.6% and 103.6% (2×) and 99.85% and 95.38% and 98.97% and 96.71% and 98.76% and 95.09% and 98.49% and 100.2% and the “Gametocyte stage III-IV viability, percentage of control” value ([1]; 1.562500000 uM, 1.5625 µM) is reported as 98.2% and 92.41% and 99.85% and 96.05% and 86.9% and 96.5% and 96.91% and 95.26% and 86.31% and 88.01% and 87.16%. The “Gametocyte stage III-IV viability, percentage of control” value ([1]; 3.125000000 uM, 3.125 µM) was 76.23% and 73.04% and 83.77% and 78.85% and 72.15% and 82.91% and 79.82% and 79.41% and 67.61% and 67.33% and 65.91%, the “Gametocyte stage III-IV viability, percentage of control” value ([1]; 6.250000000 uM, 6.25 µM) was 47.47% and 48.87% and 53.06% and 57.19% and 51.38% and 37.08% and 52.02% and 49.97% and 47.91% and 50.9% (2×) and 52.03% and the “Gametocyte stage III-IV viability, percentage of control” value ([1]; 12.500000000 uM, 12.5 µM) was 32.49% and 39.99% and 32.61% and 29.26% and 32.88% and 27.73% and 25.88% and 43.81%. For the same compound, the “Gametocyte stage III-IV viability, percentage of control” value ([1]; 25.000000000 uM) was 17.71% and 16.11% and 15.11% and 33.28% and 21.89% and 14.3% and 17.64% and 12.08% and 12.7% and 13.79% and 6.704% and 7.271%, the “Gametocyte stage III-IV viability, percentage of control” value ([1]; 50.000000000 uM) was 5.639% and 8.492% and 6.658% and 16.42% and 3.442% and -2.383% and -3.188% and -11.09% and -14.21% and 3.059% and -3.824% and -12.14% and the “Gametocyte stage III-IV viability, percentage of control” value ([1]; 100.000000000 uM) was 3.289% and 0.9211% and -0.4605% and 9.774% and -7.24% and -17.63% and -19.17% and -25.26% and -26.31% and -15.93% and -26.87% and -31.48%. The “Fold reduction in IC50 compared to primaquine alone” value [1] was 9 fold, the viability at 0.390625 µM ([1]; Plasmodium falciparum, read-out: Gametocyte stage III-IV viability, percentage of control, 0.390625000 uM, 48 h, replicate values, source data Fig. 2C) was 105% and the viability at 0.78125 µM ([1]; Plasmodium falciparum, read-out: Gametocyte stage III-IV viability, percentage of control, 0.781250000 uM, 48 h, replicate values, source data Fig. 2C) was 101%. For the same compound, the viability at 1.5625 µM ([1]; Plasmodium falciparum, read-out: Gametocyte stage III-IV viability, percentage of control, 1.562500000 uM, 48 h, replicate values, source data Fig. 2C) was 95%, the viability at 3.125 µM ([1]; Plasmodium falciparum, read-out: Gametocyte stage III-IV viability, percentage of control, 3.125000000 uM, 48 h, replicate values, source data Fig. 2C) was 72.4% and the viability at 12.5 µM ([1]; Plasmodium falciparum, read-out: Gametocyte stage III-IV viability, percentage of control, 12.500000000 uM, 48 h, replicate values, source data Fig. 2C) was 31.7%. The IC50 ([1]; Plasmodium falciparum, read-out: IC50, P. falciparum gametocyte stage III-IV inhibition, 48 h) was 7.1 µM, the “Fold difference in IC50 to primaquine” value ([2]; listed as steroid-primaquine conjugate) was ~ 3.5 fold and 3 fold and the IC50 ([2]; Toxoplasma gondii, HFF, read-out: IC50, T. gondii tachyzoite growth inhibition) was 2.8 µM. The “Huh7 viability, dose-response data points (Figure 3F)” value (“Huh7 viability” for short) ([3]; 0.015241580 uM, 0.0152416 µM) was 98.89 and 98.22 and 98.39 and 94.42 and 103 and 100.2 and 102.1 and 98.78, the “Huh7 viability” value ([3]; 0.045724740 uM, 0.0457247 µM) was 96.51 and 98.69 and 94.1 and 96.38 and 90.79 and 82.31 and 84.01 and 89.64 and the “Huh7 viability” value ([3]; 0.137174210 uM, 0.137174 µM) was 106.8 and 96.95 and 95.92 and 94.98 and 96.42 and 101.8 and 95.52 and 109.1. For the same compound, the “Huh7 viability” value ([3]; 0.411522630 uM, 0.411523 µM) was 95.23 and 97.59 and 96.23 and 88.28 and 94.64 and 96.4 and 105 and 96.39, the “Huh7 viability” value ([3]; 1.234567900 uM, 1.23457 µM) was 95.71 and 98.77 and 99.42 and 84.3 and 74.81 and 88.03 and 77.15 and 83 and 86.37 and the “Huh7 viability” value ([3]; 3.703703700 uM, 3.7037 µM) was 88.28 and 89.97 and 90.65 and 52.83 and 57.73 and 57.82 and 45.17 and 51.57 and 42.91. For the same compound, the “Huh7 viability” value ([3]; 11.111111100 uM, 11.1111 µM) was 75.95 and 74.95 and 78.75 and 46.5 and 49.1 and 49.17 and 39.05 and 40.11 and 38.75, the “Huh7 viability” value ([3]; 33.333333300 uM, 33.3333 µM) was 79.29 and 78.52 and 76.32 and 47.53 and 46.72 and 48.69 and 34.13 and 38.39 and 36.44 and the “Huh7 viability” value ([3]; 100.000000000 uM) was 80.41 and 81.45 and 81.11 and 48.76 and 54.16 and 52.59 and 35.21 and 39.74 and 37.9. For the same compound, the IC50 ([3]; Homo sapiens, Huh-7, 48 h, read-out: IC50, human hepatoma inhibition (viability)) was > 50 µM, the “Maximal inhibition of fibroblast growth at the range of concentrations tested” value ([4]; HFF) was ≤ 30% and the IC50 ([4]; Homo sapiens, Fibroblast, read-out: IC50, human fibroblast growth inhibition) was > 290 µM.
